Laboratory results from patent US20250114338A1, “TETRAHYDRO-PYRIDO[3,4-b]INDOLE ESTROGEN RECEPTOR MODULATORS AND USES THEREOF” (Genentech, Inc., priority 2014, published 2025).

Each compound was assayed on ER-alpha MCF7 (assay: ER-alpha MCF7 HCS EC50; stated as measured by in vitro cell proliferation assays of Examples 902 and 903). Conditions: Homo sapiens, MCF7, MCF7 cells; Table 2.
Type: cell-based
In short: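 MCF7 cells seeded 1000-2000 cells/well for 16 h, then treated with nine-point 1:2 DMSO dilution series in quadruplicate at 37 °C, 5% CO2 for 4 days. Viable cells quantified by CellTiter-Glo ATP luminescence; EC50 calculated. Controls: fulvestrant at final 100 nM, DMSO 0.2% v/v.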

Row | EC50 [nM] | SMILES
1 | 14 | C[C@@H]1Cc2c([nH]c3ccccc23)[C@H](c2c(F)cc(OCCN3CC(CF)C3)cc2F)N1CC(F)(F)F [Example 175, (1S,3R)-1-[2,6-difluoro-4-[2-[3-(fluoromethyl)azetidin-1-yl]ethoxy]phenyl]-3-methyl-2-(2,2,2-trifluoroethyl)-1,3,4,9-tetrahydropyrido[3,4-b]indole]
2 | 0.031 | COC(CCN1CC(Oc2cc(F)c([C@@H]3c4[nH]c5ccccc5c4C[C@@H](C)N3CC(C)(C)F)c(F)c2)C1)OC [Example 176, (1R,3R)-1-[4-[1-(3,3-dimethoxypropyl)azetidin-3-yl]oxy-2,6-difluoro-phenyl]-2-(2-fluoro-2-methyl-propyl)-3-methyl-1,3,4,9-tetrahydropyrido[3,4-b]indole]
3 | 13 | C[C@@H]1Cc2c([nH]c3ccccc23)[C@H](c2ccc(OCCN3CC(CF)C3)cc2)N1S(C)(=O)=O [Example 179, (1S,3R)-1-[4-[2-[3-(fluoromethyl)azetidin-1-yl]ethoxy]phenyl]-3-methyl-2-methylsulfonyl-1,3,4,9-tetrahydropyrido[3,4-b]indole]
4 | > 100 | C[C@@H]1Cc2c([nH]c3ccccc23)[C@@H](c2c(F)cc(OCCN3CC(CF)C3)cc2F)N1C(=O)C1CNC1 [Example 182, azetidin-3-yl-[(1R,3R)-1-[2,6-difluoro-4-[2-[3-(fluoromethyl)azetidin-1-yl]ethoxy]phenyl]-3-methyl-1,3,4,9-tetrahydropyrido[3,4-b]indol-2-yl] methanone]
5 | 4 | C[C@@H]1Cc2c([nH]c3ccccc23)[C@@H](c2c(F)cc(OCCN3CC(CF)C3)cc2F)N1C(=O)C1CC1F (stereo partly drawn) [Example 183, ((1R,3R)-1-(2,6-difluoro-4-(2-(3-(fluoromethyl)azetidin-1-yl)ethoxy)phenyl)-3-methyl-3,4-dihydro-1H-pyrido[3,4-b]indol-2(9H)-yl)(2-fluorocyclopropyl)methanone]
6 | 0.494 | C[C@@H]1CCN([C@@H](C)COc2cc(F)c([C@@H]3c4[nH]c5ccccc5c4C[C@@H](C)N3CC(C)(C)F)c(F)c2)C1 [Example 184]
7 | 2 | C[C@@H]1Cc2c([nH]c3ccccc23)[C@@H](c2c(F)cc(OCCN3CC(CF)C3)cc2F)N1CC1CC1 [Example 186, (1R,3R)-2-(cyclopropylmethyl)-1-[2,6-difluoro-4-[2-[3-(fluoromethyl)azetidin-1-yl]ethoxy]phenyl]-3-methyl-1,3,4,9-tetrahydropyrido[3,4-b]indole]
8 | 1 | C[C@@H]1Cc2c([nH]c3ccccc23)[C@@H](c2c(F)cc(OC3CN(CCC4CC4)C3)cc2F)N1CC(C)(C)F [Example 187, (1R,3R)-1-[4-[1-(2-cyclopropylethyl)azetidin-3-yl]oxy-2,6-difluoro-phenyl]-2-(2-fluoro-2-methyl-propyl)-3-methyl-1,3,4,9-tetrahydropyrido[3,4-b]indole]
9 | 2 | CC(C)CCN1CC(Oc2cc(F)c([C@@H]3c4[nH]c5ccccc5c4C[C@@H](C)N3CC(C)(C)F)c(F)c2)C1 [Example 190, (1R,3R)-1-[2,6-difluoro-4-(1-isopentylazetidin-3-yl)oxy-phenyl]-2-(2-fluoro-2-methyl-propyl)-3-methyl-1,3,4,9-tetrahydropyrido[3,4-b]indole]
10 | 0.267 | CCC(C)CN1CC(Oc2cc(F)c([C@@H]3c4[nH]c5ccccc5c4C[C@@H](C)N3CC(C)(C)F)c(F)c2)C1 (stereo partly drawn) [Example 191, (1R,3R)-1-(2,6-difluoro-4-((1-(2-methylbutyl)azetidin-3-yl)oxy)phenyl)-2-(2-fluoro-2-methylpropyl)-3-methyl-2,3,4,9-tetrahydro-1H-pyrido[3,4-b]indole]
11 | 0.077 | C[C@@H]1Cc2c([nH]c3ccccc23)[C@@H](c2c(F)cc(OC3CN(C4COC4)C3)cc2F)N1CC(C)(C)F [Example 194, (1R,3R)-1-[2,6-difluoro-4-[1-(oxetan-3-yl)azetidin-3-yl]oxy-phenyl]-2-(2-fluoro-2-methyl-propyl)-3-methyl-1,3,4,9-tetrahydropyrido[3,4-b]indole]
12 | 1 | CC(C)CN1[C@H](c2c(F)cc(OCCN3CC(CF)C3)cc2F)c2[nH]c3ccccc3c2C[C@H]1C [Example 197, (1R,3R)-1-[2,6-difluoro-4-[2-[3-(fluoromethyl)azetidin-1-yl]ethoxy]phenyl]-2-isobutyl-3-methyl-1,3,4,9-tetrahydropyrido[3,4-b]indole]
13 | 0.315 | C[C@@H]1Cc2c([nH]c3ccccc23)[C@@H](c2ccc(OC3CN(CCCF)C3)cc2)N1CC(C)(C)F [Example 201, (1R,3R)-2-(2-fluoro-2-methyl-propyl)-1-[4-[1-(3-fluoropropyl)azetidin-3-yl]oxyphenyl]-3-methyl-1,3,4,9-tetrahydropyrido[3,4-b]indole]

Second part, the compound before the results:

Row | SMILES | EC50 [nM]
14 | C[C@@H]1Cc2c([nH]c3ccccc23)[C@@H](c2ccc(OC3CN(CCCF)C3)cc2F)N1CC(C)(C)F [Example 177, (1R,3R)-1-[2-fluoro-4-[1-(3-fluoropropyl)azetidin-3-yl]oxy-phenyl]-2-(2-fluoro-2-methyl-propyl)-3-methyl-1,3,4,9-tetrahydropyrido[3,4-b]indole] | 0.164
15 | CC(C)(F)CN1CCc2c([nH]c3ccccc23)C1c1c(F)cc(OCCN2CC(CF)C2)cc1F (stereo not drawn) [Example 178, 1-[2,6-difluoro-4-[2-[3-(fluoromethyl)azetidin-1-yl]ethoxy]phenyl]-2-(2-fluoro-2-methyl-propyl)-1,3,4,9-tetrahydropyrido[3,4-b]indole] | 0.5
16 | C[C@@H]1Cc2c([nH]c3ccccc23)[C@@H](c2ccc(OCCN3CC(CF)C3)cc2)N1S(C)(=O)=O [Example 180, (1R,3R)-1-(4-(2-(3-(fluoromethyl)azetidin-1-yl)ethoxy)phenyl)-3-methyl-2-(methylsulfonyl)-2,3,4,9-tetrahydro-1H-pyrido[3,4-b]indole] | 0.222
17 | CC(CO)C(=O)N1[C@H](c2c(F)cc(OCCN3CC(CF)C3)cc2F)c2[nH]c3ccccc3c2C[C@H]1C (stereo partly drawn) [Example 181, 1-((1R,3R)-1-(2,6-difluoro-4-(2-(3-(fluoromethyl)azetidin-1-yl)ethoxy)phenyl)-3-methyl-3,4-dihydro-1H-pyrido[3,4-b]indol-2(9H)-yl)-3-hydroxy-2-methylpropan-1-one] | 4
18 | C[C@@H]1Cc2c([nH]c3ccccc23)[C@@H](c2c(F)cc(OCCN3CC(CF)C3)cc2F)N1C(=O)c1ccccc1 [Example 185, [(1R,3R)-1-[2,6-difluoro-4-[2-[3-(fluoromethyl)azetidin-1-yl]ethoxy]phenyl]-3-methyl-1,3,4,9-tetrahydropyrido[3,4-b]indol-2-yl]-phenyl-methanone] | 14
19 | C=CCN1CC(Oc2cc(F)c([C@@H]3c4[nH]c5ccccc5c4C[C@@H](C)N3CC(C)(C)F)c(F)c2)C1 [Example 188, (1R,3R)-1-[4-(1-allylazetidin-3-yl)oxy-2,6-difluoro-phenyl]-2-(2-fluoro-2-methyl-propyl)-3-methyl-1,3,4,9-tetrahydropyrido[3,4-b]indole] | 0.128
20 | C[C@@H]1Cc2c([nH]c3ccccc23)[C@@H](c2c(F)cc(OC3CN(CC4CCC4)C3)cc2F)N1CC(C)(C)F [Example 189, (1R,3R)-1-[4-[1-(cyclobutylmethyl)azetidin-3-yl]oxy-2,6-difluoro-phenyl]-2-(2-fluoro-2-methyl-propyl)-3-methyl-1,3,4,9-tetrahydropyrido[3,4-b]indole] | 1
21 | CCCC(C)N1CC(Oc2cc(F)c([C@@H]3c4[nH]c5ccccc5c4C[C@@H](C)N3CC(C)(C)F)c(F)c2)C1 (stereo partly drawn) [Example 192, (1R,3R)-1-(2,6-difluoro-4-((1-(pentan-2-yl)azetidin-3-yl)oxy)phenyl)-2-(2-fluoro-2-methylpropyl)-3-methyl-2,3,4,9-tetrahydro-1H-pyrido[3,4-b]indole] | 1
22 | C[C@@H]1Cc2c([nH]c3ccccc23)[C@@H](c2c(F)cc(OC3CN(C4CCC4)C3)cc2F)N1CC(C)(C)F [Example 193, (1R,3R)-1-[4-(1-cyclobutylazetidin-3-yl)oxy-2,6-difluoro-phenyl]-2-(2-fluoro-2-methyl-propyl)-3-methyl-1,3,4,9-tetrahydropyrido[3,4-b]indole] | 0.484
23 | C[C@@H]1Cc2c([nH]c3ccccc23)[C@@H](c2c(F)cc(OC3CN(C4CC4)C3)cc2F)N1CC(C)(C)F [Example 195, (1R,3R)-1-[4-(1-cyclopropylazetidin-3-yl)oxy-2,6-difluoro-phenyl]-2-(2-fluoro-2-methyl-propyl)-3-methyl-1,3,4,9-tetrahydropyrido[3,4-b]indole] | 0.165
24 | C[C@@H]1Cc2c([nH]c3ccccc23)[C@@H](c2c(F)cc(SC3CN(CCCF)C3)cc2F)N1CC(C)(C)F [Example 196, (1R,3R)-1-[2,6-difluoro-4-[1-(3-fluoropropyl)azetidin-3-yl]sulfanyl-phenyl]-2-(2-fluoro-2-methyl-propyl)-3-methyl-1,3,4,9-tetrahydropyrido[3,4-b]indole] | 0.271
25 | C[C@@H]1Cc2c([nH]c3ccccc23)[C@@H](c2c(F)cc(OCCN3CC(CF)C3)cc2F)N1C[C@H](C)c1ccccc1 [Example 198, (1R,3R)-1-(2,6-difluoro-4-(2-(3-(fluoromethyl)azetidin-1-yl)ethoxy)phenyl)-3-methyl-2-((R)-2-phenylpropyl)-2,3,4,9-tetrahydro-1H-pyrido[3,4-b]indole] | 2
26 | C[C@H](CN1[C@H](c2c(F)cc(OCCN3CC(CF)C3)cc2F)c2[nH]c3ccccc3c2C[C@H]1C)c1ccccc1 [Example 199, (1R,3R)-1-(2,6-difluoro-4-(2-(3-(fluoromethyl)azetidin-1-yl)ethoxy)phenyl)-3-methyl-2-((S)-2-phenylpropyl)-2,3,4,9-tetrahydro-1H-pyrido[3,4-b]indole] | 2.32
27 | CCCN1CC(Oc2cc(F)c([C@@H]3c4[nH]c5ccccc5c4C[C@@H](C)N3CC(C)C)c(F)c2)C1 [Example 200, (1R,3R)-1-[2,6-difluoro-4-(1-propylazetidin-3-yl)oxy-phenyl]-2-isobutyl-3-methyl-1,3,4,9-tetrahydropyrido[3,4-b]indole] | 0.408
